# Results published in patent US20220062262A1, “GSNO REDUCTASE INHIBITOR AS AN ADJUNCT THERAPY WITH REMOTE ISCHEMIC CONDITIONING AND THROMBOLYTIC REPERFUSION THERAPIES IN STROKE” (KING ABDULAZIZ UNIVERSITY, priority 2020, published 2022).
# Columns and labels:
# [1] = test system: PT-stroke (thrombotic occlusion of distal MCA trunk); assay: Photothrombotic (PT) model of stroke in aged mice, infarct volume by TTC staining; type: in vivo
# Experimental: Aged mice (16 ±1-mo) were subjected to PT-stroke via a novel lateral side surgical approach without craniotomy resulting in the thrombotic occlusion of distal main trunk of MCA. For the purpose, mice were anesthetized with isofluorane, prepared for surgery, and rose Bengal dye (50 mg/kgbwt in 200 uL of 1× sterile PBS) was intravenously (IV) infused. Mice were immediately put on a robotic stereotaxic frame, the head was rotated to face right side up, and the skull was exposed. The distal trunk of MCA was visualized underneath the skull bone (without craniotomy) using a 532 nm laser source (8-mm beam diameter; 4.5 mW) integrated to an ID8-iris (ThorLabs, NJ, USA). The MCA region above the zygomatic arc was exposed with the laser for 20-min from a distance of ˜2-3-mm. Following 20-min laser exposure, thrombotic occlusion of the distal trunk of MCA was confirmed using laser doppler flowmeter showing >60% drop in CBF and finally the lateral side skin wound was closed. All mice under C57/B6 background were bred, housed, used and related experimental procedures were performed in accordance with the approved protocol of Institutional Animal Care and Use Committees (IACUCs) of St. Joseph's Hospital and Medical Center (SJHMC), and Augusta University, Augusta, Ga. Effect of stroke on GSNOR expression/activity was first determined in a clinically relevant partially-humanized TE-stroke, embolic middle cerebral artery occlusion (eMCAo) model in aged (16±1-mo-old) male mice. Next, an effective dose-finding study of GRI therapy (stroke injury size) was performed in aged (16±1-mo-old) male mice in a photothrombotic (PT) model of stroke with the reduction in infarct volume as the primary outcome. The safety and benefits of the best dose of GRI therapy in reducing infarct volume as the primary outcome was also confirmed in reproductively senescent aged (16±1-mo-old) female mice subjected to PT-stroke. To test the benefits of GRI therapy during permanent ischemia, GRI was also tested in adult (14±1-weeks) mice of both sexes subjected to permanent model of middle cerebral artery ligation (pMCAL). All females were ovariectomized at the age of 12-weeks, i.e., 2-weeks prior to stroke surgery. A 2×2 factorial design was adopted [2 Sexes (MALE vs. FEMALE)×2 GRI (NO vs. YES)] such that all 4 groups of both sexes were subjected to pMCAL followed by randomization into two different treatment cohorts: GRI therapy or equal volume of Vehicle treatment. All mice were tested for behavioral outcome on a narrow beam test, relative CBF measurement using laser speckle contrast imaging (LSCI) and infarct volume size. […] Outcome measures such as brain tissue oxygenation (PbtO2), acute inflammatory genes response, neurological deficit, edema as percent (%) swelling and infarct volumes were assessed. […]
# [2] = target: T1, GSNOR (Mus musculus, UniProt P28474); assay: Plasma GSNOR activity (GSNO-dependent NADH consumption) after PT-stroke in aged female mice; type: in vivo; settings: 2.5 mg/kg after PT-stroke, P<0.01
# T1 construct: Plasma was isolated from freshly drawn blood after cardiac puncture under deep isoflurane anesthesia; from tissue; host or cells: plasma of aged female C57/B6-background mice after PT-stroke
# T1 sequence (P28474 whole entry): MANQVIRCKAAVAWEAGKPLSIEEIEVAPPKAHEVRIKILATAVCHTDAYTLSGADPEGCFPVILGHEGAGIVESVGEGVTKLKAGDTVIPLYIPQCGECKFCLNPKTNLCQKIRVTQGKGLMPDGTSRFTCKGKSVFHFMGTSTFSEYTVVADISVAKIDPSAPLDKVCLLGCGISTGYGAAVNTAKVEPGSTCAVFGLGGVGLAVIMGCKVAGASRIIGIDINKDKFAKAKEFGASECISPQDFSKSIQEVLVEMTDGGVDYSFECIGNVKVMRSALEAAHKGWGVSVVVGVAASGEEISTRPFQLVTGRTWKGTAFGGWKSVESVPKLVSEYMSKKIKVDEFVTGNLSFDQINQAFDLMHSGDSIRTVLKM
# Experimental: Plasma was isolated from freshly drawn blood after cardiac puncture under deep isoflurane anesthesia, and mice were sacrificed to collect brain tissue. Plasma and brain tissue samples were snap-frozen until assay.
# A method of GSNO dependent NADH consumption was used to determine GSNOR activity as reported. Briefly, brain tissue was homogenized in a buffer containing 50mM Tris-HCl (pH 8.0), 150 mM NaCl, 1-mM EDTA, 0.1% Triton X-100 and 1:100 protease inhibitor cocktail and centrifuged (10, 000 g×10 minutes at 4° C.) to obtain supernatant. […] The consumption of NADH was monitored with fluorescence spectrophotometry at an excitation wavelength of 340 nm and emission at 460 nm. GSNOR activity was calculated by subtracting the rate of NADH consumption incubated in the presence of GSNO minus the rate of NADH consumption without GSNO in samples.
# A sex difference was found in the basal level of plasma GSNOR activity, showing higher GSNOR activity in female mice compared to age-matched males (P<0.05; N=6/gp) as shown in FIG. 3A. […] Statistical significance was determined at P<0.05 and were indicated with asterisks or different letters indicating statistically different Means.
# [3] = test system: iNOS, iCAM-1, IL-1β, IL-6 expression; assay: Brain inflammatory gene expression (RT-PCR) after tMCAo in STZ-induced diabetic mice; type: in vivo
# Experimental: Mice were immediately sacrificed after PbtO2 measurement and brain tissue samples were analyzed for inflammatory gene expression (N=6/gp). RT-PCR primers shown in Table 1 were used to measure changes in expression of iNOS (FIG. 11A), iCAM-1 (FIG. 11B), IL-1(3 (FIG. 11C) and IL-6 (FIG. 11D). The result for each inflammatory gene was normalized to expression of β-actin and expressed as a fold change.
# [4] = test system: ischemia/reperfusion; settings: 5 mg/kg at 2 hr post ischemia/reperfusion, daily for 3 days or 2 weeks; cited from earlier work
compound,measurement,setting,value
"Cc1cc(C(N)=O)ccc1-n1c(CCC(=O)O)ccc1-c1ccc(-n2ccnc2)cc1 [GRI therapy, N6022]",stroke injury (infarct volume) vs vehicle,"[1]; aged female mice, 2.5 mg/kg, P<0.05, N=10/gp",effective in reducing the stroke injury significantly
same,neuroprotective effect (absolute infarct volume) across doses,"[1]; aged male mice, 1, 2.5, 5.0 and 10 mg/kg IV 1 h after PT-stroke, N=8/gp",dose-dependent neuroprotective effect
same,GRI dose from which the neuroprotective effect plateaus,"[1]; aged male mice, IV 1 h after PT-stroke",> 2.5 mg/kg
same,infarct/injury progression vs vehicle (TTC),"[1]; aged male mice, IV 1 h after PT-stroke, P<0.0001",significantly protected against the stroke and prevented the infarct/injury progression
same,post-stroke plasma GSNOR activity,[2],significantly inhibited the post-stroke plasma GSNOR activity
same,"inflammatory gene expression in brain (fold change, normalized to β-actin)","[3]; GRI alone vs vehicle-treated stroke group, after PbtO2 measurement at 6 h post-reperfusion",showed a trend only to downregulate most inflammatory genes and were not significantly different from the vehicle-treated stroke group
same,"inflammatory gene expression in brain (fold change, normalized to β-actin)",[3]; GRI prior to RIC therapy vs RIC therapy alone,significantly downregulated and prevented RIC-induced inflammatory responses
same,"Neurological score, survival rate and motor/cognitive skills",[4],improved
